Assay [1] has as its target T1, prolyl endopeptidase (Rattus norvegicus, UniProt O70196).
T1 construct: prolyl endopeptidase extracted from rat brain; from tissue; host or cells: rat brain
As to the kind of experiment: Prolyl Endopeptidase-Inhibitory Activity. Type of assay: biochemical. To be noted: for inhibition at 10 µM: 1 × 10^-5 M; for IC50: prolyl endopeptidase extracted from rat brain, pH 7.0, 30° C., preincubated 30 minutes, 1 hour. Here is the method: A mixture of a 0.1M potassium sodium phosphate buffer (pH 7.0) (2675 μl), a solution of the compounds of the present invention in a 0.1M potassium sodium phosphate buffer (pH 7.0) (100 μl) and a solution of prolyl endopeptidase extracted from rat brain in a 25 mM sodium phosphate buffer (100 μl) [123 unit/1, pH 6.8, containing 1 mM dithiothreitol and 0.5 mM EDTA, prepared by the method described in J. Neurochem., 35, 527 (1980)] was preincubated at 30° C. for 30 minutes. Thereto was added a 0.2 mM solution of 7-(N-succinyl-glycyl-prolyl)-4-methylcoumarinamide (Peptide Institute, INC.) in a 0.1M potassium sodium phosphate buffer (pH 7.0) (125 μl), and the mixture was incubated at 30° C. for 1 hour. The reaction mixture was immersed in ice (0° C.) to terminate the reaction, and the fluorescence (a1) was determined ten minutes later (excitation at 370 nm and emission at 440 nm). Concurrently, there were conducted the experiment wherein, in the above system, the prolyl endopeptidase solution was substituted for a 25 mM sodium phosphate buffer (pH 6.8, containing 1 mM dithiothreitol and 0.5 mM EDTA) and the experiment wherein the solution of the compounds of the present invention was also substituted for a 0.1M potassium sodium phosphate buffer (pH 7.0). Each fluorescence (a2 and a3) was also determined respectively [See Tanpakushitsu Kakusan Koso, 29, 127 (1984)]. The prolyl endopeptidase-inhibition rate was calculated by the following formula, and IC50, a concentration of a compound producing 50% inhibition, was estimated by semilogarithmic graph paper. [formula]

For assay [2], the target named is T2, trypsin (Bos taurus, UniProt P00760).
T2 construct: purchased Sigma; host or cells: bovine pancreas
T2 sequence (P00760 24-246): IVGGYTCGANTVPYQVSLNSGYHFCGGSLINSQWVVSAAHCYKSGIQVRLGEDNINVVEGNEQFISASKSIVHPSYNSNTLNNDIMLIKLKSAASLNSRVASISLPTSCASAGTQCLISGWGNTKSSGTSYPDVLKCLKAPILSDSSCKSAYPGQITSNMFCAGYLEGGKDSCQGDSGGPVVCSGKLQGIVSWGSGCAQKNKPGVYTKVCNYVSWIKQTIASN
As to the kind of experiment: Trypsin-Inhibitory Activity. Type of assay: biochemical, bovine. To be noted: read-out: Inhibition rate, trypsin; for inhibition at 10 µM: 1 × 10^-5 M. Here is the method:
In the present invention, a 50 mM Tris-HCl buffer (pH 8.0) was employed as a buffer for measurement.
To a mixture of the above-mentioned buffer (850 μl), a solution of the compounds of the present invention in the same buffer (50 μl) and a 0.02 μM solution of trypsin (derived from bovine pancreas, Sigma) in the same buffer (50 μl) was added a 200 μM solution of 7-(prolyl-phenylaranyl-arginyl)-4-methylcoumarinamide (Peptide Institute, Inc.) in the same buffer (50 μl), and the mixture was incubated at 30° C. for 1 hour. The reaction mixture was immersed in ice (0° C.) to terminate the reaction, and the fluorescence (b1) was determined 1 hour later (excitation at 370 nm and emission at 440 nm). Concurrently, there were conducted the experiment wherein, in the system above, the trypsin solution was substituted for a buffer alone, and the experiment wherein the solution of the compounds of the present invention was also substituted for a buffer above. Each fluorescence (b2 and b3) was also determined respectively.
(§1) Using the fluorescence x1, x2 and x3 measured in the above-mentioned manner, the inhibitory rate against various proteases was calculated by the following formula where x stands for b, c, d, e or f: [formula]

In assay [3] the target is T3, chymotrypsin (Bos taurus, UniProt P00766).
T3 construct: purchased Sigma; host or cells: bovine pancreas
As to the kind of experiment: Chymotrypsin-Inhibitory Activity. It counts as biochemical, bovine. The note with it: read-out: Inhibition rate, chymotrypsin; for inhibition at 10 µM: 1 × 10^-5 M. As to the method: Similarly, by following the procedure mentioned above, but employing a 50 mM Tris-HCl buffer (pH 8.0) as a buffer for measurement, a 0.2 μM solution of chymotrypsin (derived from bovine pancrease, Sigma) in the same buffer as an enzyme solution and a 200 μM solution of 7-(N-succinyl-leucyl-leucyl-valyl-tyrosyl)-4-methylcoumarinamide (Peptide Institute, Inc.) in the same buffer as a substrate solution. Each fluorescence (c1, c2 and c3) was also determined, respectively.
as §1

In assay [4] the test system is leucine aminopeptidase. Description: Leucine Aminopeptidase-Inhibitory Activity. Type of assay: biochemical, swine. As to the method:
Similarly, by following the procedure mentioned above, but employing a 50 mM Tris-HCl buffer (pH 8.0) as a buffer for measurement, a 0.2 μM solution of leucine aminopeptidase (derived from swine kidney, Sigma) in the same buffer as an enzyme solution and a 200 μM solution of 7-(leucyl-4-methylcoumarinamide (Peptide Institute, Inc.) in the same buffer as a substrate solution. Each fluorescence (d1, d2 and d3) was also determined, respectively.
as §1

Assay [5] concerns the target T4, elastase (Sus scrofa, UniProt P00772).
T4 construct: purchased Sigma; host or cells: swine pancreas
As to the kind of experiment: Elastase-Inhibitory Activity. It counts as biochemical, swine. To be noted: read-out: Inhibition rate, elastase; for inhibition at 10 µM: 1 × 10^-5 M. Here is the method:
Similarly, by following the procedure mentioned above, but employing a 1 mM Tris-HCl buffer (pH 8.5) as a buffer for measurement, a 0.2 μM solution of elastase (derived from swine pancreas, Sigma) in the same buffer as an enzyme solution and a 200 μM solution of 7-(N-succinyl-aranyl-prolyl-aranyl)-4-methylcoumarinamide (Peptide Institute, Inc.) in the same buffer as a substrate solution. Each fluorescence (e1, e2 and e3) was also determined, respectively.
as §1

In assay [6] the target is T5, cathepsin B (Bos taurus, UniProt P07688).
T5 construct: purchased Sigma; host or cells: bovine spleen
As to the kind of experiment: Cathepsin B-Inhibitory Activity. The note with it: read-out: Inhibition rate, cathepsin B; for inhibition at 10 µM: 1 × 10^-5 M. It counts as biochemical, bovine. Here is the method:
Similarly, by following the procedure mentioned above, but employing a 100 mM sodium phosphate buffer (pH 6.0; containing 1.33 mM EDTA Na2) as a buffer for measurement, a 0.02 μM solution of cathepsin B (derived from bovine spleen, Sigma) in the same buffer as an enzyme solution and a 200 μM solution of 7-(N-benzyloxycarbonyl-phenylaranyl-arginyl)-4-methylcoumarinamide (Peptide Institute, Inc.) in the same buffer as a substrate solution. Each fluorescence (f1, f2 and f3) was also determined, respectively.
as §1

The mark [7] stands for this setting: read-out: Inhibition rate, prolyl endopeptidase.

What is called inhibition is the share of the control response that was lost under treatment. A word on the IC50: it is the concentration needed to halve the response being measured. High values mean weaker potency in that assay, low ones greater potency in that assay.

T4 sequence (P00772 27-266): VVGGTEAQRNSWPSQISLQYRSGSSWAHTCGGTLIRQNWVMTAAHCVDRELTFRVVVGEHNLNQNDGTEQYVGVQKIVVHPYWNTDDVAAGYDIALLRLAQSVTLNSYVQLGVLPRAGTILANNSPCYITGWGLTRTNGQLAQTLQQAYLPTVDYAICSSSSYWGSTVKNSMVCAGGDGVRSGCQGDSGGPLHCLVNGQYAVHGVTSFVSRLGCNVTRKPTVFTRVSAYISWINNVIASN
T1 sequence (O70196 whole entry): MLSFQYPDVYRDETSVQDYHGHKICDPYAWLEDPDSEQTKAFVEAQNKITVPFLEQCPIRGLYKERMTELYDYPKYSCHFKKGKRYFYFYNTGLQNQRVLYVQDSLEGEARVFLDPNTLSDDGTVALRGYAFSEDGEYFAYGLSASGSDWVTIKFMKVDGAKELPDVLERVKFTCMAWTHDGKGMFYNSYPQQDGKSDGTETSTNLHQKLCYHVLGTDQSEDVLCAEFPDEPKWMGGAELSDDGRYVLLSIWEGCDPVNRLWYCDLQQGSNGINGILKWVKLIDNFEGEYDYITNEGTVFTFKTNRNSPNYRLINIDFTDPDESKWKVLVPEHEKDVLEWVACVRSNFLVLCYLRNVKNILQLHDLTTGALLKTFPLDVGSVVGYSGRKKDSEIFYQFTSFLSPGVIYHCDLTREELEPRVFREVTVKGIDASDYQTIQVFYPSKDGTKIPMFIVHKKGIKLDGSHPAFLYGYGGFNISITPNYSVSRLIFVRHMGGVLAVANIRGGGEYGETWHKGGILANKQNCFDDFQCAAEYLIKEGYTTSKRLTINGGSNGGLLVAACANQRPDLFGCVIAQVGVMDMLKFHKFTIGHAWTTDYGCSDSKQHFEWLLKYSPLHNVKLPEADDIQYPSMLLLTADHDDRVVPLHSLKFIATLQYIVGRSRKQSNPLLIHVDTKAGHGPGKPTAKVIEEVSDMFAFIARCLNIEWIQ

With `O=C1CCCN1CC(=O)N1CSC[C@H]1C(=O)N1CCSC1` [Compound 9, 3-{N-[(2-Oxo-1-pyrrolidinyl)acetyl]-L-thioprolyl}thiazolidine], the inhibition at 10 µM in assay [1] (setting [7]) is 97%; in assay [2] it was 0%; in assay [3], 0%; in assay [5] it was 0%; in assay [6] it was 0%. For the same molecule, in assay [1], the IC50 is 150 nM. Further, the “Inhibition rate, leucine aminopeptidase” value in assay [4] (1 × 10^-5 M) came to 0%.
Take `N#C[C@@H]1CCCN1C(=O)CCC(=O)NCc1ccc(Cl)cc1` [Compound 22, (2S)-1-[4-Oxo-4-(4-chlorobenzylamino)butanoyl]-2-cyanopyrrolidine]: the inhibition at 1 µM is 100% in assay [1] (1 × 10^-6 M, read-out: Inhibition rate, prolyl endopeptidase); 0% in assay [2] (1 × 10^-6 M); 0% in assay [3] (1 × 10^-6 M); 0% in assay [5] (1 × 10^-6 M); 0% in assay [6] (1 × 10^-6 M). In assay [1], this molecule displayed a concentration for half-maximal inhibition (IC50) of 10 nM. The “Inhibition rate, leucine aminopeptidase” value in assay [4] (1 × 10^-6 M) stood at 0%.
`O=C1CCCN1CC(=O)N1CCC[C@H]1C(=O)N1CCSC1` [Compound 8, 3-{N-[(2-Oxo-1-pyrrolidinyl)acetyl]-L-prolyl}thiazolidine]: the inhibition at 10 µM turned out to be 96% in assay [1] (setting [7]); 0% in assay [2]; 0% in assay [3]; 0% in assay [5]; 0% in assay [6]. In assay [1], this molecule showed a concentration for half-maximal inhibition (IC50) of 200 nM. The “Inhibition rate, leucine aminopeptidase” value in assay [4] (1 × 10^-5 M) was 0%.
As to `N#C[C@@H]1CCCN1C(=O)[C@@H]1CCCN1C(=O)OCc1ccccc1` [Compound 19, (2S)-1-(N-Benzyloxycarbonyl-L-prolyl)-2-cyanopyrrolidine], the inhibition at 0.01 µM in assay [1] (1 × 10^-8 M, read-out: Inhibition rate, prolyl endopeptidase) stood at 100%; in assay [2] (1 × 10^-8 M) it was 0%; in assay [3] (1 × 10^-8 M) it was 0%; in assay [5] (1 × 10^-8 M) it was 0%; in assay [6] (1 × 10^-8 M) it was 0%. 0.35 nM corresponded to half-maximal inhibition in assay [1] (IC50). The “Inhibition rate, leucine aminopeptidase” value in assay [4] (1 × 10^-8 M) is on record as 0%.

(Values after patent publication US5118811A, “Amino acid derivatives possessing prolyl endopeptidase-inhibitory activities” (Japan Tobacco Inc., priority 1989, dated 1992).)
